# ± gives the uncertainty stated by the source.
# Assay: xn = mol fraction of the nth substance listed
structure (smiles),measurement,setting,value
COc1ccccc1 + CCCCCO,viscosity,"303.15 K, 101.33 kPa, x1 = 0.1",2.369 ± 0.056 mPa·s
same,viscosity,"303.15 K, 101.33 kPa, x1 = 0.1998",1.911 ± 0.045 mPa·s
same,viscosity,"303.15 K, 101.33 kPa, x1 = 0.3002",1.658 ± 0.04 mPa·s
same,viscosity,"303.15 K, 101.33 kPa, x1 = 0.4001",1.447 ± 0.035 mPa·s
same,viscosity,"303.15 K, 101.33 kPa, x1 = 0.5",1.26 ± 0.031 mPa·s
same,viscosity,"303.15 K, 101.33 kPa, x1 = 0.6002",1.109 ± 0.035 mPa·s
same,viscosity,"303.15 K, 101.33 kPa, x1 = 0.6999",1.046 ± 0.034 mPa·s
same,viscosity,"303.15 K, 101.33 kPa, x1 = 0.8001",0.952 ± 0.031 mPa·s
same,viscosity,"303.15 K, 101.33 kPa, x1 = 0.9",0.914 ± 0.03 mPa·s
same,viscosity,"313.15 K, 101.33 kPa, x1 = 0.1",1.841 ± 0.044 mPa·s
same,viscosity,"313.15 K, 101.33 kPa, x1 = 0.1998",1.522 ± 0.037 mPa·s
same,viscosity,"313.15 K, 101.33 kPa, x1 = 0.3002",1.326 ± 0.032 mPa·s
same,viscosity,"313.15 K, 101.33 kPa, x1 = 0.4001",1.173 ± 0.037 mPa·s
same,viscosity,"313.15 K, 101.33 kPa, x1 = 0.5",1.022 ± 0.033 mPa·s
same,viscosity,"313.15 K, 101.33 kPa, x1 = 0.6002",0.929 ± 0.03 mPa·s
same,viscosity,"313.15 K, 101.33 kPa, x1 = 0.6999",0.862 ± 0.028 mPa·s
same,viscosity,"313.15 K, 101.33 kPa, x1 = 0.8001",0.814 ± 0.027 mPa·s
same,viscosity,"313.15 K, 101.33 kPa, x1 = 0.9",0.791 ± 0.026 mPa·s
same,viscosity,"323.15 K, 101.33 kPa, x1 = 0.1",1.403 ± 0.034 mPa·s
same,viscosity,"323.15 K, 101.33 kPa, x1 = 0.1998",1.172 ± 0.037 mPa·s
same,viscosity,"323.15 K, 101.33 kPa, x1 = 0.3002",1.062 ± 0.034 mPa·s
same,viscosity,"323.15 K, 101.33 kPa, x1 = 0.4001",0.953 ± 0.031 mPa·s
same,viscosity,"323.15 K, 101.33 kPa, x1 = 0.5",0.853 ± 0.028 mPa·s
same,viscosity,"323.15 K, 101.33 kPa, x1 = 0.6002",0.792 ± 0.026 mPa·s
same,viscosity,"323.15 K, 101.33 kPa, x1 = 0.6998",0.745 ± 0.025 mPa·s
same,viscosity,"323.15 K, 101.33 kPa, x1 = 0.8001",0.708 ± 0.024 mPa·s
same,viscosity,"323.15 K, 101.33 kPa, x1 = 0.9",0.696 ± 0.024 mPa·s
CC(=O)C1CCOC1=O (stereo unspecified) + CC(=O)C1CC1,viscosity,"303.15 K, 101.3 kPa, x2 = 0.0998",3.195 ± 0.068 mPa·s
same,viscosity,"313.15 K, 101.3 kPa, x2 = 0.3004",1.945 ± 0.042 mPa·s
CC(C)=O + CCCO,viscosity,"293.15 K, 100 kPa, x1 = 0.0998",1.594 ± 0.064 mPa·s
same,viscosity,"293.15 K, 100 kPa, x1 = 0.1998",1.18 ± 0.048 mPa·s
same,viscosity,"293.15 K, 100 kPa, x1 = 0.3",0.9113 ± 0.037 mPa·s
same,viscosity,"293.15 K, 100 kPa, x1 = 0.4001",0.735 ± 0.03 mPa·s
same,viscosity,"293.15 K, 100 kPa, x1 = 0.4999",0.6175 ± 0.025 mPa·s
same,viscosity,"293.15 K, 100 kPa, x1 = 0.6",0.5137 ± 0.021 mPa·s
same,viscosity,"293.15 K, 100 kPa, x1 = 0.6998",0.4493 ± 0.019 mPa·s
same,viscosity,"293.15 K, 100 kPa, x1 = 0.8002",0.407 ± 0.017 mPa·s
same,viscosity,"293.15 K, 100 kPa, x1 = 0.9",0.3728 ± 0.016 mPa·s
same,viscosity,"298.15 K, 100 kPa, x1 = 0.0998",1.433 ± 0.058 mPa·s
same,viscosity,"298.15 K, 100 kPa, x1 = 0.1998",1.075 ± 0.044 mPa·s
same,viscosity,"298.15 K, 100 kPa, x1 = 0.3",0.8407 ± 0.034 mPa·s
same,viscosity,"298.15 K, 100 kPa, x1 = 0.4001",0.6844 ± 0.028 mPa·s
same,viscosity,"298.15 K, 100 kPa, x1 = 0.4999",0.5801 ± 0.024 mPa·s
same,viscosity,"298.15 K, 100 kPa, x1 = 0.6",0.4875 ± 0.02 mPa·s
same,viscosity,"298.15 K, 100 kPa, x1 = 0.6998",0.429 ± 0.018 mPa·s
same,viscosity,"298.15 K, 100 kPa, x1 = 0.8002",0.391 ± 0.016 mPa·s
same,viscosity,"298.15 K, 100 kPa, x1 = 0.9",0.3531 ± 0.015 mPa·s
same,viscosity,"298.15 K, 101 kPa, x1 = 0.1032",1.433 ± 0.014 mPa·s
same,viscosity,"298.15 K, 101 kPa, x1 = 0.2056",0.9891 ± 0.0098 mPa·s
same,viscosity,"298.15 K, 101 kPa, x1 = 0.3073",0.7819 ± 0.0078 mPa·s
same,viscosity,"298.15 K, 101 kPa, x1 = 0.4083",0.6403 ± 0.0065 mPa·s
same,viscosity,"298.15 K, 101 kPa, x1 = 0.5086",0.5381 ± 0.0056 mPa·s
same,viscosity,"298.15 K, 101 kPa, x1 = 0.6082",0.4652 ± 0.0049 mPa·s
same,viscosity,"298.15 K, 101 kPa, x1 = 0.7072",0.4139 ± 0.0045 mPa·s
same,viscosity,"298.15 K, 101 kPa, x1 = 0.8055",0.3742 ± 0.0041 mPa·s
same,viscosity,"298.15 K, 101 kPa, x1 = 0.903",0.3453 ± 0.0039 mPa·s
same,viscosity,"303.15 K, 100 kPa, x1 = 0.0998",1.292 ± 0.052 mPa·s
same,viscosity,"303.15 K, 100 kPa, x1 = 0.1998",0.9822 ± 0.04 mPa·s
same,viscosity,"303.15 K, 100 kPa, x1 = 0.3",0.7774 ± 0.032 mPa·s
same,viscosity,"303.15 K, 100 kPa, x1 = 0.4001",0.6379 ± 0.026 mPa·s
same,viscosity,"303.15 K, 100 kPa, x1 = 0.4999",0.5456 ± 0.022 mPa·s
same,viscosity,"303.15 K, 100 kPa, x1 = 0.6",0.4629 ± 0.019 mPa·s
same,viscosity,"303.15 K, 100 kPa, x1 = 0.6998",0.4094 ± 0.017 mPa·s
same,viscosity,"303.15 K, 100 kPa, x1 = 0.8002",0.3751 ± 0.016 mPa·s
same,viscosity,"303.15 K, 100 kPa, x1 = 0.9",0.34 ± 0.014 mPa·s
same,viscosity,"308.15 K, 100 kPa, x1 = 0.0998",1.169 ± 0.047 mPa·s
same,viscosity,"308.15 K, 100 kPa, x1 = 0.1998",0.8994 ± 0.037 mPa·s
same,viscosity,"308.15 K, 100 kPa, x1 = 0.3",0.7203 ± 0.029 mPa·s
same,viscosity,"308.15 K, 100 kPa, x1 = 0.4001",0.595 ± 0.024 mPa·s
same,viscosity,"308.15 K, 100 kPa, x1 = 0.4999",0.513 ± 0.021 mPa·s
same,viscosity,"308.15 K, 100 kPa, x1 = 0.6",0.4389 ± 0.018 mPa·s
same,viscosity,"308.15 K, 100 kPa, x1 = 0.6998",0.3911 ± 0.016 mPa·s
same,viscosity,"308.15 K, 100 kPa, x1 = 0.8002",0.3599 ± 0.015 mPa·s
same,viscosity,"308.15 K, 100 kPa, x1 = 0.9001",0.3221 ± 0.014 mPa·s
same,viscosity,"313.15 K, 100 kPa, x1 = 0.0998",1.061 ± 0.043 mPa·s
same,viscosity,"313.15 K, 100 kPa, x1 = 0.1998",0.825 ± 0.034 mPa·s
same,viscosity,"313.15 K, 100 kPa, x1 = 0.3",0.6684 ± 0.027 mPa·s
same,viscosity,"313.15 K, 100 kPa, x1 = 0.4001",0.5538 ± 0.023 mPa·s
same,viscosity,"313.15 K, 100 kPa, x1 = 0.4999",0.4815 ± 0.02 mPa·s
same,viscosity,"313.15 K, 100 kPa, x1 = 0.6",0.4158 ± 0.017 mPa·s
same,viscosity,"313.15 K, 100 kPa, x1 = 0.6998",0.3733 ± 0.016 mPa·s
same,viscosity,"313.15 K, 100 kPa, x1 = 0.8002",0.3448 ± 0.015 mPa·s
same,viscosity,"313.15 K, 100 kPa, x1 = 0.9",0.301 ± 0.013 mPa·s
same,viscosity,"318.15 K, 100 kPa, x1 = 0.0998",0.9672 ± 0.039 mPa·s
same,viscosity,"318.15 K, 100 kPa, x1 = 0.1998",0.7583 ± 0.031 mPa·s
same,viscosity,"318.15 K, 100 kPa, x1 = 0.3",0.6206 ± 0.025 mPa·s
same,viscosity,"318.15 K, 100 kPa, x1 = 0.4001",0.5147 ± 0.021 mPa·s
same,viscosity,"318.15 K, 100 kPa, x1 = 0.4999",0.4495 ± 0.019 mPa·s
same,viscosity,"318.15 K, 100 kPa, x1 = 0.6",0.392 ± 0.016 mPa·s
same,viscosity,"318.15 K, 100 kPa, x1 = 0.6998",0.3543 ± 0.015 mPa·s
same,viscosity,"318.15 K, 100 kPa, x1 = 0.8002",0.3286 ± 0.014 mPa·s
same,viscosity,"318.15 K, 100 kPa, x1 = 0.9",0.2875 ± 0.012 mPa·s
same,viscosity,"323.15 K, 100 kPa, x1 = 0.0998",0.8879 ± 0.036 mPa·s
same,viscosity,"323.15 K, 100 kPa, x1 = 0.1998",0.6972 ± 0.028 mPa·s
same,viscosity,"323.15 K, 100 kPa, x1 = 0.3",0.576 ± 0.024 mPa·s
same,viscosity,"323.15 K, 100 kPa, x1 = 0.4001",0.4769 ± 0.02 mPa·s
same,viscosity,"323.15 K, 100 kPa, x1 = 0.4999",0.4195 ± 0.017 mPa·s
same,viscosity,"323.15 K, 100 kPa, x1 = 0.6",0.3661 ± 0.015 mPa·s
same,viscosity,"323.15 K, 100 kPa, x1 = 0.6998",0.3317 ± 0.014 mPa·s
same,viscosity,"323.15 K, 100 kPa, x1 = 0.8002",0.3156 ± 0.013 mPa·s
same,viscosity,"323.15 K, 100 kPa, x1 = 0.9",0.279 ± 0.012 mPa·s
CCCCn1cc[n+](C)c1.O=S(=O)([O-])C(F)(F)F + CCCCO,viscosity,"298.15 K, 100 kPa, x1 = 0.2147",6.17 ± 1.2 mPa·s
same,viscosity,"298.15 K, 100 kPa, x1 = 0.2908",8.85 ± 1.8 mPa·s
same,viscosity,"298.15 K, 100 kPa, x1 = 0.9078",62.73 ± 13 mPa·s
same,viscosity,"303.15 K, 100 kPa, x1 = 0.2147",5.08 ± 1 mPa·s
same,viscosity,"303.15 K, 100 kPa, x1 = 0.2908",6.92 ± 1.4 mPa·s
same,viscosity,"303.15 K, 100 kPa, x1 = 0.9078",50.78 ± 10 mPa·s
same,viscosity,"308.15 K, 100 kPa, x1 = 0.2908",6.03 ± 1.2 mPa·s
same,viscosity,"313.15 K, 100 kPa, x1 = 0.4008",9.48 ± 1.9 mPa·s
same,viscosity,"318.15 K, 100 kPa, x1 = 0.4008",7.86 ± 1.6 mPa·s
same,viscosity,"323.15 K, 100 kPa, x1 = 0.4008",7.16 ± 1.4 mPa·s

# Reference: the CheMixHub viscosity set
